Experimental data reported in article PMC10709440, “High-throughput ligand profile characterization in novel cell lines expressing seven heterologous insect olfactory receptors for the detection of volatile plant biomarkers” (Scientific Reports, 2023).
Like-named read-outs stand apart in the source and are kept apart here.

Assays:
Drosophila OR98a = molecular target: T1, Drosophila OR98a (Drosophila melanogaster, UniProt Q9VAZ3); assay: Calcium ion fluorescence (GCaMP6) assay, OR98a stable HEK293 cell line; assay type: cell-based; settings: for Average response: OR98a cell line, average of biological replicates, fraction of VUAA1 response
T1 construct: expressed in transfected cells
T1 sequence (Q9VAZ3 1-397): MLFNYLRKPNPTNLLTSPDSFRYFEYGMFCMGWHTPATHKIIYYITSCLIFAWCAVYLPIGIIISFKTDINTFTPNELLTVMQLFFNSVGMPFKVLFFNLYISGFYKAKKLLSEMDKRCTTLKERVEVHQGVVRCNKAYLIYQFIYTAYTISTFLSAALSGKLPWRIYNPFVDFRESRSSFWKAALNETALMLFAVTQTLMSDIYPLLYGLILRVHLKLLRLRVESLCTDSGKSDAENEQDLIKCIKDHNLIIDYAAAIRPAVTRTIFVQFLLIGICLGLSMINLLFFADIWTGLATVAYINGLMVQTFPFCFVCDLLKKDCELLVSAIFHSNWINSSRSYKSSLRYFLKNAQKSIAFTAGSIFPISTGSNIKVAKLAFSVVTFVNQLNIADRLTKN
T1 sequence (Q9VNB5 1-486 partner): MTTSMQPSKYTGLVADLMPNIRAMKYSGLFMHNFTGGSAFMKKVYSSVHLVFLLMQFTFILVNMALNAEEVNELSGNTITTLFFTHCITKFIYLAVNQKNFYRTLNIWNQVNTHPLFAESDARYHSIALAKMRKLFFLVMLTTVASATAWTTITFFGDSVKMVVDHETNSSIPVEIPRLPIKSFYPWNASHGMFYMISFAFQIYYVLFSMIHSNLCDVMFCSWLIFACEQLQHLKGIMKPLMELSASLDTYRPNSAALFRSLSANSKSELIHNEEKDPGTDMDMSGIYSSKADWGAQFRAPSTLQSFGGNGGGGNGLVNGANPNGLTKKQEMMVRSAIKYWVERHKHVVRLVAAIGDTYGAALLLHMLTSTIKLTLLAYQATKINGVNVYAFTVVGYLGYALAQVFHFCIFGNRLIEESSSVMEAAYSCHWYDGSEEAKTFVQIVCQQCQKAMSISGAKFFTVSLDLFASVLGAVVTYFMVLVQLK
Procedure: (§1) These VUAA1 normalized ∆F values were used to compare the different receptors and ligands.
(§2) The concentration-dependent effect of the reference ligands on their cognate cell lines was examined in more detail. Twelve different ligand concentrations were measured on each cell line in an overall 0.01 μM to 100 μM concentration range with 5 repetitions with three technical replicates each time.
(§3) Twelve thousand to 18,000 cells were plated into each well of a black wall, transparent bottom 384-well microplate (Greiner) 48 h or 72 h before the measurements and were simultaneously treated with 1 μg/mL doxycycline. […] The plate has 24 columns, thus we could record responses in up to eight different cell lines in each plate. On the day of the experiment, the growth medium was replaced with 20 µL assay buffer/well (140 mM NaCl, 5 mM KCl, 2 mM CaCl2, 1 mM MgCl2, 5 mM HEPES-Na, 20 mM glucose, pH 7.3, 340 mOsm). […] Baseline fluorescence (F0) was recorded for 5 s, after which 7 µL VOC buffer (140 mM NaCl, 5 mM KCl, 2 mM CaCl2, 1 mM MgCl2, 5 mM HEPES-Na, 31 mM glucose, 0.1% DMSO, pH 7.3, 340 mOsm) was injected into each well in one row and the fluorescence response was recorded for an additional 30 s, at a rate of one read/sec. VOC solutions (VOC buffer with 4× concentration of the final measured VOC concentration, 9 µL/well was injected) were measured on the same wells in a second round with the same protocol. Each individual concentration of a specific VOC sample was recorded in three wells for the same cell line on the same microplate. The raw data were exported in xls file format, F0 and FMAX values, and the fluorescence intensity changes (∆F) were calculated in Excel (Microsoft) (Supplementary file Data summary.xlsx) using the following equation: ΔF=FMAX-F0/F0 (see also Fig. 1C). On each plate, we recorded the response of each cell line to 50 µM VUAA1. The average of these ∆F values of each cell line were used to calculate the VUAA1-normalized values for the rest of the plate, by dividing VOC response ∆F values by the average VUAA1 response ∆F value of the corresponding OR cell line. Each VOC-OR combination was measured three times as technical replicates. […] The average of these replicates were used as one ∆F and VUAA1-normalized ∆F in the following analysis.
(§4) In the next rows we tested the reference VOCs (or other VOCs known to activate the corresponding cell lines), in order to test if all cell lines are responsive. The remaining rows were used to test VOCs with unknown effect.
(§5) The recorded FMAX, F0, ∆F, VUAA1-normalized ∆F values, as well as the OR name, the name of the tested sample, and the final concentration for each well were copied into supplementary file Data summary.xlsx, that was used to summarize all the plates recorded. Here, the averages of the measurements were calculated for each receptor-VOC-concentration combination.

Drosophila OR85b = molecular target: T2, Drosophila OR85b (Drosophila melanogaster, UniProt Q9VHQ7); assay: Calcium ion fluorescence (GCaMP6) assay, OR85b stable HEK293 cell line; assay type: cell-based; settings: for activation at 1 µM / activation at 10 µM / activation at 100 µM: HEK293, read-out: OR85b response (VUAA1-normalized response); for Average response: OR85b cell line, VUAA1-normalized response, mean of biological replicates
T2 construct: expressed in transfected cells
T2 sequence (Q9VHQ7 1-390): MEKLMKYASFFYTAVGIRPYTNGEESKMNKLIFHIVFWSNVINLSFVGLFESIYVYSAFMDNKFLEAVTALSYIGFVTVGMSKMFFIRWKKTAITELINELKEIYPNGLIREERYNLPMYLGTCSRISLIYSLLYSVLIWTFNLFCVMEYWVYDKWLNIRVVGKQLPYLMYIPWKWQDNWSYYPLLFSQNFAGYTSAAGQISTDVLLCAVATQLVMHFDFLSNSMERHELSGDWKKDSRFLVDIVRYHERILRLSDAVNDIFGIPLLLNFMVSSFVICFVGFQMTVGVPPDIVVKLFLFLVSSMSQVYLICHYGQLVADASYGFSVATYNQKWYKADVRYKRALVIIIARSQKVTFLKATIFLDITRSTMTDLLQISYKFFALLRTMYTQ
T2 sequence (Q9VNB5 1-486 partner): T1 sequence (Q9VNB5 1-486 partner)
Procedure: as §1, §2, §3, §4, §5

[1] = HEK293, read-out: Average response
[2] = HEK293, read-out: OR98a response (VUAA1-normalized response)
[3] = ligand concentration 1 (unit not given), threshold 0.05, below shown as 0
[4] = ligand concentration 10 (unit not given), threshold 0.05, below shown as 0
[5] = ligand concentration 100 (unit not given), threshold 0.05, below shown as 0
[6] = HEK293, read-out: OR98a Average response (VUAA1-normalized)
[7] = concentration 1, normalized fluorescence change, values below 0.05 threshold given as 0
[8] = concentration 10, normalized fluorescence change, values below 0.05 threshold given as 0
[9] = concentration 100, normalized fluorescence change, values below 0.05 threshold given as 0

SMILES | activation at 1 µM (Drosophila OR98a; [1]) [%] | activation at 10 µM (Drosophila OR98a; [1]) [%] | activation at 100 µM (Drosophila OR98a; [1]) [%] | activation at 1 µM (Drosophila OR98a; [2]) [%] | activation at 10 µM (Drosophila OR98a; [2]) [%] | activation at 100 µM (Drosophila OR98a; [2]) [%] | DF norm AVERAGE OR98a (Drosophila OR98a; [3]) | DF norm AVERAGE OR98a (Drosophila OR98a; [4]) | DF norm AVERAGE OR98a (Drosophila OR98a; [5]) | activation at 1 µM (Drosophila OR85b) [%] | activation at 10 µM (Drosophila OR85b) [%] | activation at 100 µM (Drosophila OR85b) [%] | Average response (Drosophila OR85b; cc. 1 µM) | Average response (Drosophila OR85b; cc. 10 µM) | Average response (Drosophila OR85b; cc. 100 µM) | DF norm AVERAGE OR85b (Drosophila OR85b; [3]) | DF norm AVERAGE OR85b (Drosophila OR85b; [4]) | DF norm AVERAGE OR85b (Drosophila OR85b; [5]) | DF norm AVERAGE OR98a (Drosophila OR98a; [7]) | DF norm AVERAGE OR98a (Drosophila OR98a; [8]) | also measured
O=Cc1ccccc1 [benzaldehyde] | 0 | 0 | 4.43 | 0 | 0 | 0 | 0 | 0 | 0 | 6 | 0 | 0 | 0.06 | 0.00 | 0.00 | 0.06124 | 0 | 0 |  |  | 
CC(=O)OCCC(C)C [isopentyl acetate] | 2.74 | 2.22 | 31 | 0 | 0 | 31 | 0 | 0 | 0.3069 | 0 | 7 | 0 | 0.00 | 0.07 | 0.0239 | 0 | 0.07146 | 0 |  |  | activation at 1 µM (Drosophila OR98a; [6]): 3%; activation at 10 µM (Drosophila OR98a; [6]): 2%; activation at 100 µM (Drosophila OR98a; [6]): 31%
COc1cccc(OC)c1 [1,3-dimethoxy benzene] | 0 | 1.66 | 3.31 | 0 | 0 | 0 |  |  |  | 0 | 0 | 0 | 0.00 | 0.0268 | 0.0367 |  |  |  | 0 | 0 | DF norm AVERAGE OR98a (Drosophila OR98a; [9]): 0; DF norm AVERAGE OR85b (Drosophila OR85b; [7]): 0; DF norm AVERAGE OR85b (Drosophila OR85b; [8]): 0; DF norm AVERAGE OR85b (Drosophila OR85b; [9]): 0
CC1=CCC[C@@]2(C)[C@@H]3CC[C@]12CC3(C)C [(−)-α-neoclovene] |  |  |  |  |  |  |  |  |  |  |  |  | 0.00 | 0.00 | 0.0165 |  |  |  | 0.1483 | 0 | OR98a response (VUAA1-normalized response) (Drosophila OR98a; VOC concentration 1 μM): 0.15; OR98a response (VUAA1-normalized response) (Drosophila OR98a; VOC concentration 10 μM): 0.00; OR98a response (VUAA1-normalized response) (Drosophila OR98a; VOC concentration 100 μM): 0.00; Average response (Drosophila OR98a; cc. 1 µM): 0.15; Average response (Drosophila OR98a; cc. 10 µM): 0.00; Average response (Drosophila OR98a; cc. 100 µM): 0.0421; DF norm AVERAGE OR98a (Drosophila OR98a; [9]): 0; OR85b response (VUAA1-normalized response) (Drosophila OR85b; VOC concentration 1 μM): 0.00; OR85b response (VUAA1-normalized response) (Drosophila OR85b; VOC concentration 10 μM): 0.00; OR85b response (VUAA1-normalized response) (Drosophila OR85b; VOC concentration 100 μM): 0.00; DF norm AVERAGE OR85b (Drosophila OR85b; [7]): 0; DF norm AVERAGE OR85b (Drosophila OR85b; [8]): 0; DF norm AVERAGE OR85b (Drosophila OR85b; [9]): 0
